# In ChEMBL document CHEMBL1157115, “Macrocyclic BACE inhibitors: Optimization of a micromolar hit to nanomolar leads” (Bioorg Med Chem Lett, 2010):
# How the values were obtained:
# Beta-secretase 1 [1] = biological target: T1, Beta-secretase 1 (Homo sapiens, UniProt P56817)
# Beta-secretase 1 [2] = biological target: T1, Beta-secretase 1; assay: Inhibition of BACE1 assessed as amyloid beta (1-40) production
# Mus musculus [3] = assay: Reduction in amyloid beta in mouse plasma at 10 mg/kg, po; format: ADME, organism-based; set-up: dose 10 mg/kg, route oral; scale not given: the % may be the effect or the level left; conditions: in vivo
# Mus musculus [4] = assay: Reduction in amyloid beta in mouse plasma at 50 mg/kg, po; format: ADME, organism-based; set-up: dose 50 mg/kg, route oral; scale not given: the % may be the effect or the level left; conditions: in vivo
# Mus musculus [5] = assay: Reduction in amyloid beta in mouse plasma at 25 mg/kg, po; format: ADME, organism-based; set-up: dose 25 mg/kg, route oral; scale not given: the % may be the effect or the level left; conditions: in vivo
# T1 sequence (P56817 whole entry): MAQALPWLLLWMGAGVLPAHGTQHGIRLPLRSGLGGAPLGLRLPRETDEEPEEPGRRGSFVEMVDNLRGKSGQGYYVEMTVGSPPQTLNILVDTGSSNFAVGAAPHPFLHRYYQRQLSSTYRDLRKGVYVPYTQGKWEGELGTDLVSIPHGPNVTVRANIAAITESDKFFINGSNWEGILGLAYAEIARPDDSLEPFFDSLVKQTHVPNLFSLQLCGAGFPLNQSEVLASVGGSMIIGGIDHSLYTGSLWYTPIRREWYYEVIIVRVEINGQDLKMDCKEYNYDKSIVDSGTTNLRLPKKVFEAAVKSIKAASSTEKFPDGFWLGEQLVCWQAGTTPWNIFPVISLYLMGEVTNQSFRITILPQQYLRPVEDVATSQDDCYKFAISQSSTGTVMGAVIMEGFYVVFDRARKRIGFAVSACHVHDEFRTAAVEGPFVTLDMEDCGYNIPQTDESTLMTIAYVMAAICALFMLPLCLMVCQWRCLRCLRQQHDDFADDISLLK
Ki (Beta-secretase 1 [1]) [nM],IC50 (Beta-secretase 1 [2]) [nM],Activity (Mus musculus [3]) [%],Activity (Mus musculus [4]) [%],Activity (Mus musculus [5]) [%],SMILES
8,30,,,,NC1=Nc2cc(F)c3cc2CN1[C@H](C1CCCCC1)CCC(=O)N(C1CCCCC1)CCc1cccc(c1)O3
5,7,,,,NC1=Nc2cnc3cc2CN1[C@H](C1CCCCC1)CCC(=O)N(C1CCCCC1)CCc1cccc(c1)O3
,,13,23,22,NC1=Nc2ccc3cc2CN1[C@H](C1CCCCC1)CCC(=O)N(C1CCCCC1)CCc1cccc(c1)O3

SMILES,Ki (Beta-secretase 1 [1]) [nM],IC50 (Beta-secretase 1 [2]) [nM],Activity (Mus musculus [3]) [%],Activity (Mus musculus [4]) [%],Activity (Mus musculus [5]) [%]
CC(C)[C@@H]1CCC(=O)N(C2CCOCC2)CCc2cccc(c2)Oc2ccc3c(c2)CN1C(N)=N3,,685,,,
